From BindingDB's records for doi:10.1021/acs.jmedchem.8b00401 (2019)

Legend:
[1] = target: D(3) dopamine receptor (Homo sapiens, UniProt P35462); test: Displacement of [3H]-N-methylspiperone from recombinant human D3R expressed in HEK cell membranes after 90 mins by scintillation counting method
[2] = target: Sodium-dependent dopamine transporter (Homo sapiens, UniProt Q01959); test: Displacement of [3H]-WIN35428 from recombinant human DAT expressed in HEK cell membranes after 90 mins by scintillation counting method
Sodium-dependent dopamine transporter, sequence (Q01959 whole entry): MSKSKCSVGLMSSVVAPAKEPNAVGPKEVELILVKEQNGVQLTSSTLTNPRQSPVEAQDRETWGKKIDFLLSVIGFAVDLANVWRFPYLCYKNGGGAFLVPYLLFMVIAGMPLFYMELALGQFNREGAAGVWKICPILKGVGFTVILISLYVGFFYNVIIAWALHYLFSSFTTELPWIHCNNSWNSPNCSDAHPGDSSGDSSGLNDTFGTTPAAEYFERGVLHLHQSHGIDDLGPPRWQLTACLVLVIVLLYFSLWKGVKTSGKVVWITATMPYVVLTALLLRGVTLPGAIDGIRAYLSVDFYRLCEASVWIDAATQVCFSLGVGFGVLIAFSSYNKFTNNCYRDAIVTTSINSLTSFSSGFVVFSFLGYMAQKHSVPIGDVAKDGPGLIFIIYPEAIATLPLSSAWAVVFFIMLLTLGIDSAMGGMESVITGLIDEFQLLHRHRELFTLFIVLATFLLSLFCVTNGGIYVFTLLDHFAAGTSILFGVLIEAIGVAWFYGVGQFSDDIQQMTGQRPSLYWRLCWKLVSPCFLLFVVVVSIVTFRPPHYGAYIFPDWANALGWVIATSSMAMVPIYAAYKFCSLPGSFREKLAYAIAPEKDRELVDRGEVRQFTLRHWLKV

D(3) dopamine receptor, sequence (P35462 as listed by the source): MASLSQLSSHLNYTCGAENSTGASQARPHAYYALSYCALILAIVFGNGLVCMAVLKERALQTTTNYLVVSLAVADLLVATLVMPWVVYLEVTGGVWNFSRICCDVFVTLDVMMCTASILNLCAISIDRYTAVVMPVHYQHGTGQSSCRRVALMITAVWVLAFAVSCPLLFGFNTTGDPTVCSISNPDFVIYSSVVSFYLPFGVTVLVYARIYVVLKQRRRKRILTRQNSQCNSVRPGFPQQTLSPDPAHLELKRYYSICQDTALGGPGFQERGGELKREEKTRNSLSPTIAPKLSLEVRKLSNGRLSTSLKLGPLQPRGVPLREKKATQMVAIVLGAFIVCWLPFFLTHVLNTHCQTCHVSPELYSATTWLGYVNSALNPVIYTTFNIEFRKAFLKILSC

Ki [1]: 4.7 µM
Ki [2]: 1.8 µM
Compound: CCCCCCCCCCC[C@@H]1CCN[C@H](C(=O)NCC(O)CO)C1 (some centres not stated)
